We go through 32 molecules from ChEMBL document CHEMBL1134111, “Nucleoside analogues as highly potent and selective inhibitors of herpes simplex virus thymidine kinase” (Bioorg Med Chem Lett, 2001).

pIC50: −log10 of the molar value.

The target of assay [1] is T1, Thymidine kinase (Human herpesvirus 2, UniProt Q6L709).
T1 sequence (Q6L709 whole entry): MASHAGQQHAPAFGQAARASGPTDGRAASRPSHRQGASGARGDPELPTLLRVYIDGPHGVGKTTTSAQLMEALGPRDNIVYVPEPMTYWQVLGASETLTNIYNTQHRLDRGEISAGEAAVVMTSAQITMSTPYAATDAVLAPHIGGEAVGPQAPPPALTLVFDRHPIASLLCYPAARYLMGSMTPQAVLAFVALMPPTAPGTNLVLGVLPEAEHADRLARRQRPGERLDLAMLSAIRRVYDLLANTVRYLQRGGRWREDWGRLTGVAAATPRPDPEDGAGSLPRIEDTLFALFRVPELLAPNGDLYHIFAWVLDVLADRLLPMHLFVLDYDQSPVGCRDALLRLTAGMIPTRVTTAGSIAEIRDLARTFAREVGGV
Description: Inhibitory activity against HSV-2 Thymidine Kinase (HSV-2 TK).

Assay [2] addresses T2, Thymidine kinase (Human herpesvirus 1 (strain SC16) (HHV-1) (Human herpes simplex virus1), UniProt P06479).
T2 sequence (P06479 whole entry): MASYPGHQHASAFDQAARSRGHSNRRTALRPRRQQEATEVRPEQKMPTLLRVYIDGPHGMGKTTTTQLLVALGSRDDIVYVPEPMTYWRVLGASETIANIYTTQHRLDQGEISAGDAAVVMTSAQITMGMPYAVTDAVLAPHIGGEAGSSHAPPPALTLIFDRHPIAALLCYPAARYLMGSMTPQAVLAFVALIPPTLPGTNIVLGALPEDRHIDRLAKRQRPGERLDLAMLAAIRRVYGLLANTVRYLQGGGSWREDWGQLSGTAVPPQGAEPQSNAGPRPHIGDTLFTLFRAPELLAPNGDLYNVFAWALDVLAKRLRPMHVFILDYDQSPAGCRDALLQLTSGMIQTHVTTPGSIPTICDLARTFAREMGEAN
Description: Inhibitory activity against HSV-1 Thymidine Kinase (HSV-1 TK).

`CCc1cn([C@@H]2O[C@H](CNC(=O)C3c4ccccc4Oc4c(C)cccc43)[C@@H](O)[C@@H]2F)c(=O)[nH]c1=O` (some centres undefined): the pIC50 in assay [1] is 9.72; in assay [2], 8.80.

As to `CCc1cn([C@H]2C[C@H](O)[C@@H](CNC(=O)C3c4ccccc4Cc4ccccc43)O2)c(=O)[nH]c1=O`, the negative-log IC50 (pIC50) in assay [1] was 8.92; in assay [2], 8.15.

As to `CCc1cn([C@H]2C[C@H](O)[C@@H](CNC(=O)Cc3ccccc3)O2)c(=O)[nH]c1=O`, the results for the pIC50 in assay [1] and in assay [2] were 6.52 and 6.00, respectively.

For the molecule `CCc1cn([C@H]2C[C@H](O)[C@@H](CNC(=O)Cc3ccccc3C)O2)c(=O)[nH]c1=O`, the pIC50 in assay [1] was 7.22; in assay [2] it was 6.70.

As to `CCc1cn([C@@H]2O[C@H](CNC(=O)C3c4ccccc4S(=O)(=O)c4ccccc43)[C@@H](O)[C@@H]2F)c(=O)[nH]c1=O`, the negative-log IC50 (pIC50) in assay [1] is 9.96; in assay [2], 9.03.

Consider `CCc1cn([C@@H]2O[C@H](CNC(=O)[C@H](C)Oc3cc(OC)c(Cl)cc3Cl)[C@@H](O)[C@@H]2F)c(=O)[nH]c1=O`, for which the negative logarithm of the IC50 (pIC50) in assay [1] is 9.72; in assay [2], 8.74.

For `CCc1cn([C@H]2C[C@H](O)[C@@H](CNC(=O)Cc3ccccc3Cl)O2)c(=O)[nH]c1=O`, the pIC50 in assay [1] is 7.52; in assay [2], 7.00.

For the molecule `CCc1cn([C@H]2C[C@H](O)[C@@H](CNC(=O)Cc3ccccc3-c3ccccc3)O2)c(=O)[nH]c1=O`, the pIC50 is 7.05 in assay [1] and 6.62 in assay [2].

As to `CCc1cn([C@@H]2O[C@H](CNC(=O)C3c4ccccc4Oc4c3cccc4C(F)(F)F)[C@@H](O)[C@@H]2F)c(=O)[nH]c1=O` (some centres undefined), the negative-log IC50 (pIC50) in assay [1] is 9.85; in assay [2], 9.00.

Consider `CCc1cn([C@@H]2O[C@H](CNC(=O)C3c4cccc(C)c4Oc4c(C)cccc43)[C@@H](O)[C@@H]2F)c(=O)[nH]c1=O`, for which the values for the pIC50 in assay [1] and in assay [2] were 9.37 and 8.66, respectively.

For the molecule `CCc1cn([C@H]2C[C@H](O)[C@@H](CNC(=O)Cc3ccccc3OC)O2)c(=O)[nH]c1=O`, the pIC50 is 7.15 in assay [1] and 6.52 in assay [2].

Take `CCc1cn([C@H]2C[C@H](O)[C@@H](CNC(=O)C3c4ccccc4N(C)c4ccccc43)O2)c(=O)[nH]c1=O`: the negative-log IC50 (pIC50) is 8.59 in assay [1] and 7.64 in assay [2].

As to `CCc1cn([C@H]2C[C@H](O)[C@@H](CNC(=O)C3c4ccccc4S(=O)(=O)c4ccccc43)O2)c(=O)[nH]c1=O`, the pIC50 in assay [1] was 9.89; in assay [2], 9.02.

On to `CCc1cn([C@@H]2O[C@H](CNC(=O)C3c4ccccc4C(C)(C)c4ccccc43)[C@@H](O)[C@@H]2F)c(=O)[nH]c1=O`, for which the pIC50 was 9.55 in assay [1] and 8.82 in assay [2].

For the molecule `CCc1cn([C@H]2C[C@H](O)[C@@H](CNC(=O)C3c4ccccc4-c4ccccc43)O2)c(=O)[nH]c1=O`, the negative logarithm of the IC50 (pIC50) in assay [1] was 8.28; in assay [2], 7.55.

Turning to `CCc1cn([C@@H]2O[C@H](CNC(=O)C3c4ccccc4Oc4ccccc43)[C@@H](O)[C@@H]2F)c(=O)[nH]c1=O`, the negative logarithm of the IC50 (pIC50) is 9.96 in assay [1] and 8.68 in assay [2].

Turning to `CCc1cn([C@H]2C[C@H](O)[C@@H](CNC(=O)C3c4ccccc4Oc4ccccc43)O2)c(=O)[nH]c1=O`, the values for the pIC50 in assay [1] and in assay [2] were 9.89 and 8.54, respectively.

As to `CCc1cn([C@@H]2O[C@H](CNC(=O)C3c4ccccc4Sc4ccccc43)[C@@H](O)[C@@H]2F)c(=O)[nH]c1=O`, the negative-log IC50 (pIC50) in assay [1] was 9.15; in assay [2], 8.07.

Turning to `CCc1cn([C@@H]2O[C@H](CNC(=O)C3c4ccccc4Oc4c(Cl)cccc43)[C@@H](O)[C@@H]2F)c(=O)[nH]c1=O` (some centres undefined), the negative-log IC50 (pIC50) in assay [1] is 9.85; in assay [2], 9.07.

For `CCc1cn([C@@H]2O[C@H](CNC(=O)C3c4ccccc4Oc4c(-c5ccccc5)cccc43)[C@@H](O)[C@@H]2F)c(=O)[nH]c1=O` (some centres undefined), the pIC50 in assay [1] was 9.85; in assay [2], 9.18.

With `CCc1cn([C@H]2C[C@H](O)[C@@H](CNC(=O)C3c4ccccc4CCc4ccccc43)O2)c(=O)[nH]c1=O`, the pIC50 in assay [1] is 7.36; in assay [2], 6.59.

`CCc1cn([C@@H]2O[C@H](CNC(=O)C3c4ccccc4S(=O)(=O)c4c(Cl)cccc43)[C@@H](O)[C@@H]2F)c(=O)[nH]c1=O` (some centres undefined): the values for the pIC50 in assay [1] and in assay [2] were 10.05 and 9.57, respectively.

For `CCc1cn([C@H]2C[C@H](O)[C@@H](CNC(=O)C3c4ccccc4Sc4ccccc43)O2)c(=O)[nH]c1=O`, the pIC50 is 8.85 in assay [1] and 7.94 in assay [2].

For `CCc1cn([C@H]2C[C@H](O)[C@@H](CNC(=O)Cc3c(C)cccc3C)O2)c(=O)[nH]c1=O`, the results for the pIC50 in assay [1] and in assay [2] were 8.08 and 7.40, respectively.

On to `CCc1cn([C@H]2C[C@H](O)[C@@H](CNC(=O)Cc3c(Cl)cccc3Cl)O2)c(=O)[nH]c1=O`, for which the pIC50 in assay [1] was 8.48; in assay [2] it was 9.00.

Turning to `CCc1cn([C@H]2C[C@H](O)[C@@H](CNC(=O)Cc3ccccc3F)O2)c(=O)[nH]c1=O`, the pIC50 is 6.85 in assay [1] and 6.15 in assay [2].

In the case of `CCc1cn([C@@H]2O[C@H](CNC(=O)C3c4ccccc4C(C(F)(F)F)(C(F)(F)F)c4ccccc43)[C@@H](O)[C@@H]2F)c(=O)[nH]c1=O`, the negative logarithm of the IC50 (pIC50) in assay [1] was 9.96; in assay [2], 9.72.

Take `CCc1cn([C@H]2C[C@H](O)[C@@H](CNC(=O)c3c4ccccc4cc4ccccc34)O2)c(=O)[nH]c1=O`: the negative-log IC50 (pIC50) in assay [1] is 6.38; in assay [2], 5.78.

In the case of `CCc1cn([C@@H]2O[C@H](CNC(=O)C3c4ccccc4Oc4c(OC)cccc43)[C@@H](O)[C@@H]2F)c(=O)[nH]c1=O` (some centres undefined), the pIC50 was 9.68 in assay [1] and 8.77 in assay [2].

`CCc1cn([C@@H]2O[C@H](CNC(=O)C3c4cccc(Cl)c4Oc4c(Cl)cccc43)[C@@H](O)[C@@H]2F)c(=O)[nH]c1=O`: the negative logarithm of the IC50 (pIC50) in assay [1] is 10.00; in assay [2], 9.52.

On to `CCc1cn([C@H]2C[C@H](O)[C@@H](CNC(=O)Cc3ccccc3C(F)(F)F)O2)c(=O)[nH]c1=O`, for which the negative logarithm of the IC50 (pIC50) in assay [1] was 7.05; in assay [2] it was 6.70.

On to `CCc1cn([C@@H]2O[C@H](CNC(=O)C3c4ccccc4Sc4c(Cl)cccc43)[C@@H](O)[C@@H]2F)c(=O)[nH]c1=O` (some centres undefined), for which the figures for the negative logarithm of the IC50 (pIC50) in assay [1] and in assay [2] were 9.68 and 8.82, respectively.

What is called pIC50 is −log10 of the IC50, conventionally taken in molar units.
